From PubChem BioAssay (NCI)
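GI50: concentration for 50% inhibition of growth. At the TGI there is no net growth.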

Columns and labels:
Assay in all cases: inhibition of tumour cell growth, NCI panel, 384-well format
SW-620 colon = system: SW-620 colon
HCT-15 colon = system: HCT-15 colon
A549 NSCLC = system: A549 NSCLC
IGROV1 ovarian = system: IGROV1 ovarian
PC-3 prostate = system: PC-3 prostate
SNB-19 CNS = system: SNB-19 CNS
SNB-75 CNS = system: SNB-75 CNS
SF-268 CNS = system: SF-268 CNS
786-0 renal = system: 786-0 renal
EKVX NSCLC = system: EKVX NSCLC
M14 melanoma = system: M14 melanoma
UO-31 renal = system: UO-31 renal
SF-295 CNS = system: SF-295 CNS
MCF7 breast = system: MCF7 breast
TK-10 renal = system: TK-10 renal
OVCAR-5 ovarian = system: OVCAR-5 ovarian
OVCAR-4 ovarian = system: OVCAR-4 ovarian
SK-MEL-5 melanoma = system: SK-MEL-5 melanoma
SK-OV-3 ovarian = system: SK-OV-3 ovarian
RPMI-8226 leukemia = system: RPMI-8226 leukemia
MDA-MB-231 breast = system: MDA-MB-231 breast
SR leukemia = system: SR leukemia
OVCAR-3 ovarian = system: OVCAR-3 ovarian
NCI-H460 NSCLC = system: NCI-H460 NSCLC
MDA-MB-468 breast = system: MDA-MB-468 breast
LOX IMVI melanoma = system: LOX IMVI melanoma
BT-549 breast = system: BT-549 breast
HOP-62 NSCLC = system: HOP-62 NSCLC
NCI-H322M lung = system: NCI-H322M lung
NCI/ADR-RES ovarian = system: NCI/ADR-RES ovarian
U251 glioblastoma = system: U251 glioblastoma
MOLT-4 leukemia = system: MOLT-4 leukemia
MALME-3M melanoma = system: MALME-3M melanoma
HCC-2998 colon = system: HCC-2998 colon
HT29 colon = system: HT29 colon
NCI-H522 lung = system: NCI-H522 lung
HS 578T breast = system: HS 578T breast
HOP-92 NSCLC = system: HOP-92 NSCLC
T-47D breast = system: T-47D breast
NCI-H226 lung = system: NCI-H226 lung
NCI-H23 lung = system: NCI-H23 lung
CCRF-CEM leukemia = system: CCRF-CEM leukemia
RXF 393 renal = system: RXF 393 renal
OVCAR-8 ovarian = system: OVCAR-8 ovarian
SN12C renal = system: SN12C renal
HCT-116 colon = system: HCT-116 colon
KM12 colon = system: KM12 colon
DU-145 prostate = system: DU-145 prostate
MDA-MB-435 melanoma = system: MDA-MB-435 melanoma
SF-539 CNS = system: SF-539 CNS
COLO 205 colon = system: COLO 205 colon
HL-60(TB) leukemia = system: HL-60(TB) leukemia

## COc1ccc(-c2cc3c(C)nc(N)nc3n(C3CCC(OCCO)CC3)c2=O)cn1 (centres undefined)
SW-620 colon
  GI50: 0.315 µM
  TGI: > 100 µM
HCT-15 colon
  GI50: 0.0898 µM
  TGI: 12.8 µM
A549 NSCLC
  GI50: 0.173 µM
  TGI: 1.1 µM
IGROV1 ovarian
  GI50: 0.0241 µM
  TGI: 0.0803 µM
PC-3 prostate
  GI50: 0.0418 µM
  TGI: 0.434 µM
SNB-19 CNS
  GI50: 0.896 µM
  TGI: 2.26 µM
SNB-75 CNS
  GI50: 0.024 µM
  TGI: 0.113 µM
SF-268 CNS
  GI50: 0.231 µM
  TGI: 1.73 µM
786-0 renal
  GI50: 0.268 µM
  TGI: 1.53 µM
EKVX NSCLC
  GI50: 0.0623 µM
  TGI: 0.447 µM
M14 melanoma
  GI50: 0.0978 µM
  TGI: 4.56 µM
UO-31 renal
  GI50: 0.0562 µM
  TGI: 0.856 µM
SF-295 CNS
  GI50: 0.0455 µM
  TGI: 0.257 µM
MCF7 breast
  GI50: 0.0207 µM
  TGI: 12.7 µM
TK-10 renal
  GI50: 0.0658 µM
  TGI: 0.408 µM
OVCAR-5 ovarian
  GI50: 0.145 µM
  TGI: 1.75 µM
OVCAR-4 ovarian
  GI50: 0.0902 µM
  TGI: 0.854 µM
SK-MEL-5 melanoma
  GI50: 0.0882 µM
  TGI: 0.261 µM
SK-OV-3 ovarian
  GI50: 0.0805 µM
  TGI: 0.394 µM
RPMI-8226 leukemia
  GI50: 0.0287 µM
  TGI: 0.105 µM
MDA-MB-231 breast
  GI50: 0.229 µM
  TGI: 2.37 µM
SR leukemia
  GI50: 0.106 µM
  TGI: 0.304 µM
OVCAR-3 ovarian
  GI50: 0.053 µM
  TGI: 0.318 µM
NCI-H460 NSCLC
  GI50: 0.0409 µM
  TGI: 11.6 µM
MDA-MB-468 breast
  GI50: 0.0267 µM
  TGI: 0.146 µM
LOX IMVI melanoma
  GI50: 0.222 µM
  TGI: 1.15 µM
BT-549 breast
  GI50: 0.114 µM
  TGI: 0.63 µM
HOP-62 NSCLC
  GI50: 0.178 µM
  TGI: 1.5 µM
NCI-H322M lung
  GI50: 0.149 µM
  TGI: 13.3 µM
NCI/ADR-RES ovarian
  GI50: 0.241 µM
  TGI: 2.27 µM
U251 glioblastoma
  GI50: 0.49 µM
  TGI: 1.98 µM
MOLT-4 leukemia
  GI50: 0.0318 µM
  TGI: 0.16 µM
MALME-3M melanoma
  GI50: 0.0247 µM
  TGI: 0.143 µM
HCC-2998 colon
  GI50: 0.222 µM
  TGI: 1.67 µM
HT29 colon
  GI50: 0.228 µM
  TGI: 5.15 µM
NCI-H522 lung
  GI50: 0.0716 µM
  TGI: 1.2 µM
HS 578T breast
  GI50: 0.0429 µM
  TGI: 0.235 µM
HOP-92 NSCLC
  GI50: 0.0431 µM
  TGI: 0.302 µM
T-47D breast
  GI50: 0.0199 µM
  TGI: 0.0846 µM
NCI-H226 lung
  GI50: 0.191 µM
  TGI: 0.96 µM
NCI-H23 lung
  GI50: 0.132 µM
  TGI: 5.99 µM
CCRF-CEM leukemia
  GI50: 0.0597 µM
  TGI: 1.15 µM
RXF 393 renal
  GI50: 0.037 µM
  TGI: 0.199 µM
OVCAR-8 ovarian
  GI50: 0.245 µM
  TGI: 6.52 µM
SN12C renal
  GI50: 0.0823 µM
  TGI: > 100 µM
HCT-116 colon
  GI50: 0.26 µM
  TGI: 10.5 µM
KM12 colon
  GI50: 0.318 µM
  TGI: 33.2 µM
DU-145 prostate
  GI50: 0.188 µM
  TGI: 23.8 µM
MDA-MB-435 melanoma
  GI50: 0.22 µM
  TGI: 1.61 µM
SF-539 CNS
  GI50: 0.185 µM
  TGI: 1.27 µM
COLO 205 colon
  GI50: 0.126 µM
  TGI: 1.35 µM
HL-60(TB) leukemia
  GI50: 0.0179 µM
  TGI: 0.191 µM
